Measurements taken from ChEMBL document CHEMBL1201862, “PubChem BioAssay data set” (2004).
Activity calls are given as the source filed them.

How the values were obtained:
[1] = target: ATP-binding cassette sub-family B member 6 (Homo sapiens, UniProt Q9NP58); experiment: ABCB6 transporter inhibitors, porphyrin accumulation, dose response, flow cytometry, K562-ABCB6 cells, cherry pick 02 (AID 624487); type: functional; conditions: read-out: EC50_MICROM
[2] = control 3'UTR Renilla luciferase suppression, dose response, counter-screen for Shn3 inhibitor project, cell-based, Clone20-Shn3RL, cherry-picked (AID 624133); type: functional
Streptococcus = experiment: Group A Streptococcus viability loss, dose response, counter-screen for streptokinase expression inhibitor project, luminescence, BacTiterGlo (AID 1915); type: functional, organism-based;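 note: potency for reduction of bacterial viability or growth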
[3] = tested on: Streptococcus sp. 'group A'; experiment: growth inhibition of control SK(-) GAS strain, dose response, counter-screen for streptokinase expression inhibitor project, luminescence, kanamycin, BacTiterGlo, confirmation (AID 1900); type: functional, organism-based
Protein RecA = target: T1, Protein RecA (Mycobacterium tuberculosis, UniProt P9WHJ3); experiment: Fluorescence Cell-Free Homogeneous Dose Retest to Identify Inhibitors of RecA-Intein Splicing Activity. [Related pubchem assays (depositor defined):AID2097, AID2223, AID489010, AID492950]; type: functional
T1 sequence (P9WHJ3 whole entry): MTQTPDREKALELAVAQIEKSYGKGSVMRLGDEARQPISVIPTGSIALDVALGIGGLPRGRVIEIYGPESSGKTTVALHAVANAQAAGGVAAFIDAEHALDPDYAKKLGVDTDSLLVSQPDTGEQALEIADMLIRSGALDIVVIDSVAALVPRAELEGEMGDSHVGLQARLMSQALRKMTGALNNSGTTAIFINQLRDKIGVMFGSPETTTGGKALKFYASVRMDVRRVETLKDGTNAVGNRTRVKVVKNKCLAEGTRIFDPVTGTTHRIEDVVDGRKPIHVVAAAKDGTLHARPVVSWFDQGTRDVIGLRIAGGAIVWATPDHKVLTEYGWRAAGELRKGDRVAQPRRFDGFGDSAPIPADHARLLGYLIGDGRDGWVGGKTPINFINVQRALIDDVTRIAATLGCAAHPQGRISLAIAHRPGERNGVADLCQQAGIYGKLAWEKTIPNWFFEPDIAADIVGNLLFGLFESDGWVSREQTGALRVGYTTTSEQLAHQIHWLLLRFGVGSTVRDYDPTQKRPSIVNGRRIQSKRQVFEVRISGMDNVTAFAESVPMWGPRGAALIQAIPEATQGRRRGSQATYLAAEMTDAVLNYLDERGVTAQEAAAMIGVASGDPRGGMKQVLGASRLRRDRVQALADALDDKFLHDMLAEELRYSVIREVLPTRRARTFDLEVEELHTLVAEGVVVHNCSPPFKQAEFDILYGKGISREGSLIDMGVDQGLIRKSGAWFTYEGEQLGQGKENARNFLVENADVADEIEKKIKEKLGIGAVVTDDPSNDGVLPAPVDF

[4] = HepG2 cell cytotoxicity, dose response, cytotoxicity control for Shn3 inhibitor project, CellTiter-Glo, cherry-picked (AID 624134); type: functional, cell-based
[5] = Shn3 3'UTR reporter inhibitors, dose response, cell-based, Clone20 osteoblasts, firefly luciferase, cherry-picked (AID 624132); type: functional;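 note: firefly luciferase luminescence from reporter carrying the Shn3 3'UTR in osteoblasts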
[6] = target: T2, Replicative DNA helicase DnaB (Mycobacterium tuberculosis, UniProt P9WMR3); experiment: DnaB intein splicing inhibitors, dose response, biochemical, cell-free fluorescence (AID 449749); type: functional
T2 sequence (P9WMR3 whole entry): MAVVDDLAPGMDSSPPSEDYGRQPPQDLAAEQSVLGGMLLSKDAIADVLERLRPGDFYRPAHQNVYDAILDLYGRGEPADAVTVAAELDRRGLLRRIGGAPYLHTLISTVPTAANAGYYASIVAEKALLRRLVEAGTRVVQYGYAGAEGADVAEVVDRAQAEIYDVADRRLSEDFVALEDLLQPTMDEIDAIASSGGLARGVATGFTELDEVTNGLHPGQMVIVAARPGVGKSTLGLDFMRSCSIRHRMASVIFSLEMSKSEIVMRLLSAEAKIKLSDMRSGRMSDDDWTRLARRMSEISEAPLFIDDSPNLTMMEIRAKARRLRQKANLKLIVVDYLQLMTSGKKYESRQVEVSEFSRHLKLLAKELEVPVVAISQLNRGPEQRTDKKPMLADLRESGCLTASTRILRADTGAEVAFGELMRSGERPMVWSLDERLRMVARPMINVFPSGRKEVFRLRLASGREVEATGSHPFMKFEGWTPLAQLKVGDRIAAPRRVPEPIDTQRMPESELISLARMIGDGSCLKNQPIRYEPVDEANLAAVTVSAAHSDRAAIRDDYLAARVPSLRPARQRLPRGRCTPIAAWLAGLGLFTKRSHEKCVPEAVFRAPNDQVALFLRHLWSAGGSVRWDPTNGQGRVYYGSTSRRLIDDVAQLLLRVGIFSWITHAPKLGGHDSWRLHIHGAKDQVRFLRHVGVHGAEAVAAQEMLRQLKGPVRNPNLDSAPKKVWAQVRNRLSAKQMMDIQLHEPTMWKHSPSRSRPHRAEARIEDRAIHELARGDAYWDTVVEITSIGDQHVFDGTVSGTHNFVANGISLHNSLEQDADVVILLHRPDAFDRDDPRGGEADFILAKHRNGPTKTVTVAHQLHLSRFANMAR

CHO = experiment: cytotoxicity in TLR9-MyD88 CHO cells, dose response, cytotoxicity control for TLR9-MyD88 binding inhibitor project, cell-based, luminescence (AID 588339); type: functional, hamster; conditions: Cricetulus griseus;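 note: CHO cells stably coexpressing TLR9 and MyD88 fusions from primary screen; compound exposure lasted 48 hours before viability readout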
[7] = Luminescence Cell-Based Dose Retest to Confirm Inhibitors of Cancer Stem Cells. [Related pubchem assays (depositor defined):AID2717, AID2721]; type: functional; conditions: Homo sapiens
Streptokinase A = target: T3, Streptokinase A (Streptococcus pyogenes serotype M1, UniProt P10520); experiment: S. pyogenes streptokinase expression inhibitors, potency, dose response, plasminogen activation absorbance, OD405 (AID 1914); type: functional, Streptococcus pyogenes M1 GAS;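 note: secreted streptokinase activity via plasminogen activation per viability signal from cell pellet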
T3 sequence (P10520 whole entry): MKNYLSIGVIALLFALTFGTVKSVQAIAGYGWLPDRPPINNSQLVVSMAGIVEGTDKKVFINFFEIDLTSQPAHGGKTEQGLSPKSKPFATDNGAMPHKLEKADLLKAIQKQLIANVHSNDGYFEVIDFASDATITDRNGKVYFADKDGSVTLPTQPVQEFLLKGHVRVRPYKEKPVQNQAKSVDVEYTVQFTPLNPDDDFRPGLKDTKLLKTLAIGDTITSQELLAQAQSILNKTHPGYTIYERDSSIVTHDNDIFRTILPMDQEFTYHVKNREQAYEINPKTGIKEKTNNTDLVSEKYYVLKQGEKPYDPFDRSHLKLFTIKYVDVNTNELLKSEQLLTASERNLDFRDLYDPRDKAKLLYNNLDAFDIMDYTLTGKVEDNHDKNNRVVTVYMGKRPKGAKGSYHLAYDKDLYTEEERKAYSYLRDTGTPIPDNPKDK

Hexokinase HKDC1 = target: T4, Hexokinase HKDC1 (Homo sapiens, UniProt Q2TB90); experiment: HKDC1 hexokinase inhibitors, SAR follow-up, biochemical, set 2 (AID 588355); type: functional
T4 sequence (Q2TB90 whole entry): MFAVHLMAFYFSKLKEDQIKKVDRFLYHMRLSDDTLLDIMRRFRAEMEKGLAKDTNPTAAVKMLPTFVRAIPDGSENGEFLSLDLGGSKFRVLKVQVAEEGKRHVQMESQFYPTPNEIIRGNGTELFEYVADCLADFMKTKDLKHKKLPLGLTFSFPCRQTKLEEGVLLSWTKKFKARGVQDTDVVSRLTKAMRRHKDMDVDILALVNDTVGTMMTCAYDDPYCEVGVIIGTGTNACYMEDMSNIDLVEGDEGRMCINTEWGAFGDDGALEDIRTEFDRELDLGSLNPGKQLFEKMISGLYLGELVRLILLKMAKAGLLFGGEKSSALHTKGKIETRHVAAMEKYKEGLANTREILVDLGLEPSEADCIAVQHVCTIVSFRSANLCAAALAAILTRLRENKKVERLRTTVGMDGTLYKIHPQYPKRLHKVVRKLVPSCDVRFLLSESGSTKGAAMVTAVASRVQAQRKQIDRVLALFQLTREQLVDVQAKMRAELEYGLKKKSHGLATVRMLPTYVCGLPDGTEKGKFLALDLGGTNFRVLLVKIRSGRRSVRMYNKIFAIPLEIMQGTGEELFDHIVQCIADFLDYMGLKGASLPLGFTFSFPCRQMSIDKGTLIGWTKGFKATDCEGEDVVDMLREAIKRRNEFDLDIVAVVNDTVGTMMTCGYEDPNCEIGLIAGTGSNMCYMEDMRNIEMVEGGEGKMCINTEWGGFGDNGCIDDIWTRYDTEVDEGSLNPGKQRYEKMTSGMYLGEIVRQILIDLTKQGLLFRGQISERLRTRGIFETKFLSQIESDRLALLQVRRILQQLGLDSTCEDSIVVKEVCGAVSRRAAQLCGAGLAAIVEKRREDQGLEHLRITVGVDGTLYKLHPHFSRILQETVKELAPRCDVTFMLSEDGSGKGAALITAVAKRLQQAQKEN

Hexokinase-1 = target: T5, Hexokinase-1 (Homo sapiens, UniProt P19367); experiment: HK1 enzyme inhibition by HKDC1 hits, SAR follow-up, selectivity assay for HKDC1 inhibitor project, biochemical, set 2, resazurin fluorescence coupled readout (AID 588356); type: functional
T5 sequence (P19367 whole entry): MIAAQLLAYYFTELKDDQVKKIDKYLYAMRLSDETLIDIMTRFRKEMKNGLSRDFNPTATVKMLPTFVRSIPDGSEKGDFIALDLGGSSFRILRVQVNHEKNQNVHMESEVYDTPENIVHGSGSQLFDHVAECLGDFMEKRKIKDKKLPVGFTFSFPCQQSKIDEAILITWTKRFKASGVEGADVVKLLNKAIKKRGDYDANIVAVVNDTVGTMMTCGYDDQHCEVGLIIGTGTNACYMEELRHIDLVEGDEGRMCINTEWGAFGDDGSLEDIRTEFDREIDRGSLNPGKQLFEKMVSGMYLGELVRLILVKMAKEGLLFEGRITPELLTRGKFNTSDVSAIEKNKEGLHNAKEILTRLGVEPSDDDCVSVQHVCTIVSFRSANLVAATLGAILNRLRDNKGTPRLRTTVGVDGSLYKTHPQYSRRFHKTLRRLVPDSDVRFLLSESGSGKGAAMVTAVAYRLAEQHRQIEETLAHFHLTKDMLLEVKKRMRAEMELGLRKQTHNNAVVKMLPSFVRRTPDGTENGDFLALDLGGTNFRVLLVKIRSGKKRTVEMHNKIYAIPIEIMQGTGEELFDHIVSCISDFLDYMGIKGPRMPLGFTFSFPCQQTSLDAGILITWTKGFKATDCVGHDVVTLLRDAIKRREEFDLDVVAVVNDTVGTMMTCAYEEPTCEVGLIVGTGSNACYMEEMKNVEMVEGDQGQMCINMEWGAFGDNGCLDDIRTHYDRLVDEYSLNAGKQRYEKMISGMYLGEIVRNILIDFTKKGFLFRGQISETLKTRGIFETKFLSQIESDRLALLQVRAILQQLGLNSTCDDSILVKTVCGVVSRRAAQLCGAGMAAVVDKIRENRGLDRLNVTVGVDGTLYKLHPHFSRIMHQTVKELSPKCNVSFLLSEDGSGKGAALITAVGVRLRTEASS

[8] = cytotoxicity in HPDE-C7 cells, cell-based, fluorescence, HTS (AID 430); type: functional; conditions: Homo sapiens
Vero [9] = experiment: host cell cytotoxicity of antiviral hits, dose response, cytotoxicity control for West Nile virus antiviral project, secondary assay (AID 1650); type: functional; conditions: Chlorocebus sabaeus
HT-1080 = experiment: cytotoxicity in HT1080 fibrosarcoma cells, cell-based, fluorescence readout (AID 620); type: functional; conditions: Homo sapiens
Vero [10] = experiment: Vero cell cytotoxicity, cytotoxicity control for flavivirus capping enzyme inhibitors (AID 588742); type: functional; conditions: Chlorocebus sabaeus
[11] = cytotoxicity in KRAS-transformed pancreatic duct cells, primary screen, cell-based, fluorescence, HTS (AID 431); type: functional; conditions: Homo sapiens;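 note: cell line used: HPDE-C7K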
[12] = target: Type-1 angiotensin II receptor (Homo sapiens, UniProt P30556); experiment: AT1 receptor antagonists, dose response, selectivity assay for APJ receptor antagonist project, cell-based, uHTS hits (AID 463214); type: functional;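 note: antagonist potency against angiotensin II stimulated AT1 response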
Type-1 angiotensin II receptor, sequence (P30556 whole entry): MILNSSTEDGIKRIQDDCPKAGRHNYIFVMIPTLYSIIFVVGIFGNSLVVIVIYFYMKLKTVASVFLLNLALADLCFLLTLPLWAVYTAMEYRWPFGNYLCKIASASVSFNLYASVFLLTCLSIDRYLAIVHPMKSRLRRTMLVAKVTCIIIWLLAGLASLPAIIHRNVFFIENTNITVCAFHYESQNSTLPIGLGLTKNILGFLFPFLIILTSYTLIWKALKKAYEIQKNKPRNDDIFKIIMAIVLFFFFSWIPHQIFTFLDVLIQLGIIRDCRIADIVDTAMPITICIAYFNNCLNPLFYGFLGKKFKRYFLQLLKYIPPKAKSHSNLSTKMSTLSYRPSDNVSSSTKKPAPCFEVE

Beta-galactosidase = Beta-galactosidase (Escherichia coli, UniProt Q8VNN2); experiment: PubChem AID 485352; type: functional
Beta-galactosidase, sequence (Q8VNN2 whole entry): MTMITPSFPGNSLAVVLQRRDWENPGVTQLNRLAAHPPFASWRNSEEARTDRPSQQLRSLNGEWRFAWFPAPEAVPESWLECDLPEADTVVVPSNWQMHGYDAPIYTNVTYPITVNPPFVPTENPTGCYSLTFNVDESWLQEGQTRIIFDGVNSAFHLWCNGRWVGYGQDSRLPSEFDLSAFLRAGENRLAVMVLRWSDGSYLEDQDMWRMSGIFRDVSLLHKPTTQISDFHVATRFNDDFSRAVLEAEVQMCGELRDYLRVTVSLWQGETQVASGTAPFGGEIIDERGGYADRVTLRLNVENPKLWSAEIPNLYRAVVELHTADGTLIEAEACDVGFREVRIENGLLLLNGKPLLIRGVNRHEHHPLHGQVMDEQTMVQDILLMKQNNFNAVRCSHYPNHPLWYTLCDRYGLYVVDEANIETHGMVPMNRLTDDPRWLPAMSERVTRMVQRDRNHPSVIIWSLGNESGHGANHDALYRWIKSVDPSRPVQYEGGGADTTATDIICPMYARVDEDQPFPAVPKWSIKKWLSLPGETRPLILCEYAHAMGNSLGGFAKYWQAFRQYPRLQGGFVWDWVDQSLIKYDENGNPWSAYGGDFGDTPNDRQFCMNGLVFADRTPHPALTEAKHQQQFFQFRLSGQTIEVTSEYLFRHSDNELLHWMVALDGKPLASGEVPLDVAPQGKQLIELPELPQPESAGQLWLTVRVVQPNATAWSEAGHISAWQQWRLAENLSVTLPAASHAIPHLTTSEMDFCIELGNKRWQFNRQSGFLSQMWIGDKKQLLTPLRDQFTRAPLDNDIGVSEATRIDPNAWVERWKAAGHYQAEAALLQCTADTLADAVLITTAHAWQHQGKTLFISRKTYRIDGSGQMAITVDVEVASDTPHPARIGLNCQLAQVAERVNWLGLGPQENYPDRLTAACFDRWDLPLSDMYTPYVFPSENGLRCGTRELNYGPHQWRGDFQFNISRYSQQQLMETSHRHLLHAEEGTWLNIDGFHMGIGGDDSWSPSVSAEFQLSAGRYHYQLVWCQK

ATP-binding cassette sub-family B member 6, sequence (Q9NP58 whole entry): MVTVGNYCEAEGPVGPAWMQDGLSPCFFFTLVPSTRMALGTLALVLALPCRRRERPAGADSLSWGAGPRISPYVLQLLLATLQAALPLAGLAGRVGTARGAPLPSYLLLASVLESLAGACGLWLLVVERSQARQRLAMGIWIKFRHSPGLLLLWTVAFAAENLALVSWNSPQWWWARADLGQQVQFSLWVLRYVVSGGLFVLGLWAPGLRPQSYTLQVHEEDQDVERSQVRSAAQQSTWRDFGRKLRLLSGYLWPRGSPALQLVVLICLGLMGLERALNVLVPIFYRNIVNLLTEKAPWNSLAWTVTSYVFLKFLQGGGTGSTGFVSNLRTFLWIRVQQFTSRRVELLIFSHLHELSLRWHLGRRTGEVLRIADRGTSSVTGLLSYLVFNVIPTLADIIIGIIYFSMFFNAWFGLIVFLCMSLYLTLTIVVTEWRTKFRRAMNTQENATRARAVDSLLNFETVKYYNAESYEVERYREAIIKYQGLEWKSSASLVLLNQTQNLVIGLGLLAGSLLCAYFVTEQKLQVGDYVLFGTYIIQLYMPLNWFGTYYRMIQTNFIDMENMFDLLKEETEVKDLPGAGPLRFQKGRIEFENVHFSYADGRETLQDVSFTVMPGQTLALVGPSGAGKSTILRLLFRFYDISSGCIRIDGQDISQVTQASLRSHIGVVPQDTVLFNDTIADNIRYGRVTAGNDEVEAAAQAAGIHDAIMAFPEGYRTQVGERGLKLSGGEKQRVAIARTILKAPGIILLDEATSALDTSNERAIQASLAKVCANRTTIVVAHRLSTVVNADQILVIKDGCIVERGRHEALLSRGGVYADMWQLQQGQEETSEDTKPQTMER

Cc1ccc(NC(=O)c2nc(S(=O)(=O)Cc3ccccc3C)ncc2Cl)cc1C
EC50 [1]: 20.5 µM (active) | AC50 [2]: 8.07 µM (active) | EC50 (Streptococcus): 22.2 µM (inconclusive) | EC50 [3]: 9.97 µM (active) | EC50 (Protein RecA): 1.31 µM (active) | AC50 [4]: 30.8 µM (active) | AC50 [5]: 0.486 µM (active) | AC50 [6]: > 380 µM (inconclusive) | IC50 (CHO): 5.02 µM (active) | AC50 [7]: 2.01 µM (active) | EC50 (Streptokinase A): 1.32 µM (active)

O=c1c2ccc(F)cc2nc(/C=C/c2cccnc2)n1Cc1ccccc1
IC50 (Hexokinase HKDC1): > 80 µM (inactive) | IC50 (Hexokinase-1): > 80 µM (inactive)

O=C(NCc1cccs1)c1nc(O)c2nnn(Cc3ccccc3Cl)c2n1
EC50 [8]: > 20 µM (not active) | CC50 (Vero [9]): 14.6 µM (active) | EC50 (HT-1080): > 50 µM (not active) | CC50 (Vero [10]): 7 µM (active) | EC50 [11]: > 20 µM (not active)

O=C(O)c1cccc(NC(=S)NC(=O)c2cncc(Br)c2)c1
IC50 [12]: > 40 µM (not active) | EC50 (Beta-galactosidase): > 40 µM (inactive)
